According to patent US8404696B2, “Quinazoline-2,4-dione derivative, and medical compositions for the prophylaxis and treatment of cranial nerve disease containing the same” (Shin Poong Pharmaceutical Co., Ltd., priority 2008, dated 2013):
In brackets after ≈: the same amount, converted by molar mass.

What was measured:
[1] = test system: pentylentetrazole (PTZ)-induced convulsion; experiment: Anti-convulsant effect, pentylentetrazole (PTZ) test; type: in vivo; settings: 10 mg/kg intraperitoneally, PTZ 80 mg/kg subcutaneously; for mortality rate / Induction percentage of convulsion: (animals/total); for mortality rate: negative control 70(17/23); for Induction percentage of convulsion: negative control 100(23/23); for Initiation time of convulsion: negative control 5.0 ± 0.7; for Duration of convulsion: negative control 46.7 ± 3.3
Description: An experiment was performed by the method of Ali et al. (Ali, A. et al. 2006, Pharmacological Reports, 58: 242-245). A 10 mg/kg dose of compound was intraperitoneally administered to identify the anti-convulsant effect and the effect was observed (Table 8). Researching the process of activity was performed by the Anti-epileptic Drug Development Program (ADD) of NIH during development of the anti-convulsant drug. One of the assessed items of anti-convulsant activity in the first step of this program is the pentylentetrazole (PTZ) test. […] After 10 mg/kg of the testing drug was administered, assessment was performed by estimating the initiation time of convulsion, duration until convulsion completely disappeared and mortality rate. It was assessed as having an anti-convulsant effect when a single episode of clonic spasm was not shown over 5 seconds on at least one of the 4 laboratory animals after PTZ administration.

[2] = test system: superoxide dismutase (SOD); experiment: Increase of superoxide dismutase (SOD) activity in mouse brain cells; type: cell-based; settings: 100 μg/ml
Description: (§1) ROS inhibitory effect of compounds was represented to the dose suppressing 50% of production of reactive oxygen compared to control. […] The activity of superoxide dismutase (SOD) was measured by using a kit acquired in Sigma.

[3] = test system: mixed culture of nerve cells-glial cells; experiment: Protecting effect on NMDA-induced nerve cell death (LDH release); type: cell-based, ICR mouse; settings: 100 μM NMDA, LDH release after 24 hours
Description: Isolation and culture of nerve cells were performed by Choi's method (Choi, D. W. 1985, Neurosci. Lett., 58: 293-297). That is, the cortex was isolated in fetus ICR mouse that was 14 days pregnant, and then single cells were obtained from the tissue using pipette. The cells were aliquoted into 2×10^5/well density in a 24-well plate (Falcon) in which glial cells of cerebral cortex had been cultured in an incubator maintained at 37° C. with 5% CO2 for over 3 weeks. The culture medium was supplemented with MEM (minimum essential medium, Sigma), 2 mM glutamine, 21 mM glucose, 26.5 mM bicarbonate, 10% fetal bovine serum (FBS). In 3-5 days after aliquot, 10 μM Ara-C (cytosine arabinoside) was treated to suppress proliferation of neuroglia. And it was treated with 100 μM NMDA and 1 μg/mL or 2 μg/mL of each sample (compound) to induce the death of nerve cells due to excitable toxicity for 20 minutes, in 12-15 days after aliquot. Because of nerve cell death, lactate dehydrogenase (LDH) accumulated in proportion to the number of dead cells. In 24 hours after drug treatment, the amount of dehydrogenase (LDH) released to outside of cells was measured by using an […] measurement kit (CytoTox 96, Promega). After the reaction was completed, the change of absorbance depending on the amount of LDH was measured by using a microplate spectrophotometer.

thoracic aorta of rats = experiment: Relaxing effect on thoracic aorta contracted by phenylephrine (organ bath); design: species or system rats of SD species; settings: Rattus norvegicus; 67 μg/mL; phenylephrine 0.5 μM; mean n = 3; read-out: Relaxation percentage
Text: After male rats of SD species (250-300 g) were anesthetized by inhalation of ether, their thoracic aortas were extracted and put into a Krebs buffer (mM; NaCl 118, NaHCO3 27.3, KCl 4.8, MgSO4 1.2, KH2PO4 1.0, CaCl2 1.25, glucose 11.1). 2 mm of aortic ring was made under dissecting microscope and cultured in an organ bath to measure the tension of blood vessels. The organ bath was filled with Krebs buffer and saturated with 95% O2, 5% CO2 to maintain dissolved oxygen and physiological pH. Changing of tension was measured by a tension meter (Hugo-sachs, model K30) and recorded by physiological recorder (Coulbourn polygraph). The length of the blood vessels was increased step by step to make 1.0 g of basal tension for 90 minutes. The equilibrated blood vessel was contracted by phenylephrine (0.5 μM). When the contraction furrow reached equilibrium, compounds were added, followed by observation of relaxation response.

mouse brain cells = experiment: Inhibitory effect on ROS production in brain cells (DCF-DA, NMDA-induced); type: cell-based; settings: 24 h; dose suppressing 50% of production of reactive oxygen compared to control; mouse brain cells; read-out: ROS inhibitory effect ID50
Description: Oxidative stress was measured to test inhibitory effects on the production of reactive oxygen species (ROS) by using DCF-DA, which is a fluorescent probe. Brain cells were obtained from brain cortex of mouse to prepare cell solution with 2×10^6 cells/ml. Each brain cell was treated with 11 μM of DCF-DA followed by reaction in 37° C., 5% CO2 incubator for an hour. After washing twice, Compound 3 was treated with a concentration of 125 μg/ml and 250 μg/ml. At the same time, 300 μM of NMDA was treated and it was incubated in 37° C., 5% CO2 incubator for 24 hours.
as §1

Molecule	mortality rate [1]	Induction percentage of convulsion [1]	Initiation time of convulsion [1] [min]	Duration of convulsion [1] [min]	Increase of SOD activity, compared to control [2]	Inhibitory effect of cell death by NMDA-induced excitable neurotoxicity ([3]; 1 μg/ml compound) [%]	Inhibitory effect of cell death by NMDA-induced excitable neurotoxicity ([3]; 2 μg/ml compound) [%]	inhibition at 67 µg/mL (thoracic aorta of rats) [%]	IC50 (mouse brain cells) [µg/mL]
3-[3-(4-{N-[3-(2,4-dioxo-1,4-dihydro-2H-quinazolin-3-yl)propyl]-N-benzylamino}butyl)-N-benzylamino]propyl-1H-quinazoline-2,4-dione [Compound 15]	83(5/6) %	83(5/6) %	25.7 ± 7.2	34.3 ± 7.2	1.3 ± 3.1	22.4	22.3		
O=c1[nH]c2ccccc2c(=O)n1CCCCNCCCn1c(=O)[nH]c2ccccc2c1=O [Compound 7, 3-{4-[3-(2,4-dioxo-1,4-dihydro-2H-quinazolin-3-yl)propylamino]butyl}-1H-quinazoline-2,4-dione]	67(4/6) %	100(6/6) %	3.1 ± 0.3	42.9 ± 8.7		26.0	39.7	56.8	17.7 ± 17.3 (≈ 40.6 µM)
O=C(NCCCNCCCCNCCCn1c(=O)[nH]c2ccccc2c1=O)c1ccc(O)cc1 [Compound 8, N-(3-{4-[3-(2,4-dioxo-1,4-dihydro-2H-quinazolin-3-yl)propylamino]butylamino}propyl)-4-hydroxybenzamide]						20.0	28.2	35.7	103 ± 20.4 (≈ 220 µM)
CC(C)(C)OC(=O)N(CCCCNCCCn1c(=O)[nH]c2ccccc2c1=O)CCCn1c(=O)[nH]c2ccccc2c1=O [Compound 11, [3-(2,4-dioxo-1,4-dihydro-2H-quinazolin-3-yl)propyl]-{4-[3-(2,4-dioxo-1,4-dihydro-2H-quinazolin-3-yl)propylamino]butyl}carbamic Acid tert-butyl ester]	17(1/6) %	100(6/6) %	10.1 ± 4.9	44.9 ± 5.8	2.3 ± 3.4	15.0		10.9	
CCOC(=O)N(CCCCN(CCCn1c(=O)[nH]c2ccccc2c1=O)C(=O)OCC)CCCn1c(=O)[nH]c2ccccc2c1=O [Compound 16, [3-(2,4-dioxo-1,4-dihydro-2H-quinazolin-3-yl)propyl]-(4-{[3-(2,4-dioxo-1,4-dihydro-2H-quinazolin-3-yl)propyl]ethoxycarbonylamino}butyl)carbamic Acid ethyl ester]	0(0/6) %	100(6/6) %	7.6 ± 1.7	6.4 ± 2.3	7.5 ± 2.3	18.1			
CC(C)(C)OC(=O)N(CCCCN(CCCn1c(=O)[nH]c2ccccc2c1=O)C(=O)OC(C)(C)C)CCCn1c(=O)[nH]c2ccccc2c1=O [Compound 17, (4-{tert-butoxycarbonyl-[3-(2,4-dioxo-1,4-dihydro-2H-quinazolin-3-yl)propyl]amino}butyl)-[3-(2,4-dioxo-1,4-dihydro-2H-quinazolin-3-yl)propyl]carbamic acid tert-butyl ester]					0.3 ± 0.0	21.0	10.7	51.7	
CC(=O)N(CCCCN(CCCn1c(=O)[nH]c2ccccc2c1=O)C(C)=O)CCCNC(=O)c1ccc(O)cc1 [Compound 21, N-{3-[acetyl-(4-{acetyl-[3-(2,4-dioxo-1,4-dihydro-2H-quinazolin-3-yl)propyl]amino}butyl)amino]propyl}-4-hydroxybenzamide]	0(0/6) %	67(4/6) %	22.2 ± 11.9	6.7 ± 3.1	−0.3 ± 3.7	19.6	16.6	2.6	
Cn1c(=O)n(CCCN(CCCCN(CCCn2c(=O)c3ccccc3n(C)c2=O)C(=O)OC(C)(C)C)C(=O)OC(C)(C)C)c(=O)c2ccccc21 [Compound 26, (4-{tert-butoxycarbonyl-[3-(1-methyl-2,4-dioxo-1,4-dihydro-2H-quinazolin-3-yl)propyl]amino}butyl)-[3-(1-methyl-2,4-dioxo-1,4-dihydro-2H-quinazolin-3-yl)propyl]carbamic acid tert-butyl ester]	50(3/6) %	83(5/6) %	15.4 ± 9.0	33.0 ± 9.5	0.7 ± 5.7	8.8	29.7	3.7	
O=C1c2ccccc2C(=O)N1CCCNCCCCNCCCn1c(=O)[nH]c2ccccc2c1=O [Compound 28, 3-(3-{4-[3-(1,3-dioxo-1,3-dihydro-isoindole-2-yl)propylamino]butylamino}propyl)-1H-quinazoline-2,4-dione]	0(0/6) %	100(6/6) %	4.8 ± 2.2	26.9 ± 6.5		23.1	22.4	8.3	30.9 ± 13.7 (≈ 64.7 µM)
O=C(N(CCCCNCCCn1c(=O)[nH]c2ccccc2c1=O)CCCn1c(=O)[nH]c2ccccc2c1=O)C(F)(F)F [Compound 36, N-[3-(2,4-dioxo-1,4-dihydro-2H-quinazolin-3-yl)propyl]-N-{4-[3-(2,4-dioxo-1,4-dihydro-2H-quinazolin-3-yl)propylamino]butyl}-2,2,2-trifluoroacetamide]	33(2/6) %	100(6/6) %	8.9 ± 2.3	25.1 ± 9.7	4.9 ± 1.2	32.2	18.4		
